Results as given in PubChem BioAssay (NCI).
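Exposure lasted 48 hours, with cells grown in 96-well plates and compounds tested at five concentrations. GI50 = concentration required for 50% inhibition of growth. TGI marks complete inhibition of growth.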

Tests used:
Test in all cases: inhibition of tumour cell growth, NCI panel, 48 h
HCT-116 colon = tested on: HCT-116 colon
IGROV1 ovarian = tested on: IGROV1 ovarian
OVCAR-3 ovarian = tested on: OVCAR-3 ovarian
SF-539 CNS = tested on: SF-539 CNS
SN12C renal = tested on: SN12C renal
NCI-H226 lung = tested on: NCI-H226 lung
SK-MEL-28 melanoma = tested on: SK-MEL-28 melanoma
SF-268 CNS = tested on: SF-268 CNS
CAKI-1 renal = tested on: CAKI-1 renal
T-47D breast = tested on: T-47D breast

Compound | TGI (HCT-116 colon) | TGI (IGROV1 ovarian) | TGI (OVCAR-3 ovarian) | TGI (SF-539 CNS) | TGI (SN12C renal) | TGI (NCI-H226 lung) | TGI (SK-MEL-28 melanoma) | TGI (SF-268 CNS) | TGI (CAKI-1 renal) | TGI (T-47D breast) | GI50 (OVCAR-3 ovarian) | GI50 (NCI-H226 lung) | GI50 (CAKI-1 renal) | GI50 (T-47D breast) | GI50 (IGROV1 ovarian) | GI50 (SF-539 CNS) | GI50 (SN12C renal) | GI50 (SK-MEL-28 melanoma) | GI50 (SF-268 CNS) | GI50 (HCT-116 colon)
O=C1OC2(c3ccc(O)cc3Oc3cc(O)ccc32)c2c1c(-c1ccccc1)c(-c1ccccc1)c(-c1ccccc1)c2-c1ccccc1 | 57.3 µM | 37.4 µM | > 100 µM | 40.8 µM | 60.3 µM | 87.3 µM | 44.6 µM | 53.1 µM | 62.8 µM | 71.4 µM |  |  |  |  |  |  |  |  |  | 
O=C1c2ccccc2C(=O)c2c(O)c(O)cc(O)c21 | 77.1 µM | > 100 µM | 64.3 µM | 66 µM | > 100 µM |  | > 100 µM | > 100 µM | > 100 µM |  |  |  |  |  |  |  |  |  |  | 
COc1cc2c3c(n(C4CCNCC4)c(=O)c2cc1OC)-c1cc2c(cc1C3=O)OCO2 |  |  | 2.6 µM |  |  | 2.94 µM |  |  | 1.6 µM | 2.38 µM | 1.2 µM | 0.635 µM | 0.295 µM | 0.395 µM |  |  |  |  |  | 
CCCCCCCCCCCCCCCCOCCCOP(=O)(O)C1CCCN(O)C1=O (stereo not drawn) |  | 4.77 µM | 16.4 µM | 11 µM | 12.8 µM | 14.3 µM | 44.3 µM | 11.7 µM | 6.18 µM | 27.5 µM | 2.77 µM | 2.1 µM | 2.09 µM | 6.15 µM | 0.609 µM | 3.02 µM | 1.53 µM | 3.46 µM | 1.81 µM | 
NC(=O)c1cc(C2OC(CO)C(O)C2O)nn1-c1ccc([N+](=O)[O-])cc1 (stereo not drawn) | > 100 µM | > 100 µM | > 100 µM | > 100 µM | > 100 µM | > 100 µM | > 100 µM | > 100 µM | > 100 µM |  |  |  |  |  |  |  |  |  |  | 
COc1ccc(/C=C/[N+](=O)[O-])cc1 | > 100 µM | 11.3 µM | 8.62 µM | 4.92 µM | 56 µM | 17.4 µM | 28.3 µM | 8.11 µM |  |  |  |  |  |  |  |  |  |  |  | 
COc1cc2c3c(c4cc(OC)c(OC)cc4c2cc1OC)[C@H](O)[C@@H]1CCCN1C3 | 7.64 µM |  | 1.18 µM |  | 1.42 µM | 3.64 µM | > 100 µM |  | 2.3 µM | 2.53 µM |  |  |  |  |  |  |  |  |  | 
N#CC1=C(N)Nc2nc3ccccc3n2C1c1ccccc1 (stereo not drawn) | > 100 µM | > 100 µM | 97.7 µM | > 100 µM | > 100 µM |  |  | > 100 µM | > 100 µM | 63.1 µM |  |  |  |  |  |  |  |  |  | 
S=C1NN=C2C(=C3CCCC4C5CCCCC5N2C34)N1 (stereo not drawn) |  | > 100 µM | > 100 µM |  |  | > 100 µM | > 100 µM | > 100 µM | > 100 µM | > 100 µM |  |  |  |  |  |  |  |  |  | 
COC1/C=C\OC2(C)Oc3c(C)c(O)c4c(O)c(c(CN(C)C)c(O)c4c3C2=O)NC(=O)/C(C)=C\C=C/C(C)C(O)C(C)C(O)C(C)C(OC(C)=O)C1C (stereo not drawn) | 37.9 µM | > 100 µM | > 100 µM | 45.5 µM | 83.8 µM | > 100 µM | 97.5 µM | > 100 µM | > 100 µM | > 100 µM |  |  |  |  |  |  |  |  |  | 
COc1ccc2c(c1)/C(=C\c1cccc(/C=C3/C(=O)Nc4ccc(OC)cc43)n1)C(=O)N2 | 1.29 µM | > 100 µM | 5.38 µM | 5.7 µM | 4.91 µM | 4.16 µM |  | > 39.9 µM | 5.62 µM | 2.53 µM |  | 1.54 µM |  |  | 2.2 µM |  |  |  |  | 
COC(=O)c1nc2c3c(cccc3c1C(=O)OC)Nc1ccccc1-2 | > 100 µM | > 100 µM | > 100 µM | > 100 µM | > 100 µM | > 100 µM | > 100 µM | > 100 µM | > 100 µM |  |  |  |  |  |  |  |  |  |  | 
C[C@H](CCC1=NCCN1)[C@H]1CC[C@H]2[C@@H]3CC[C@@H]4C[C@H](O)CC[C@]4(C)[C@H]3CC[C@]12C | > 36.9 µM | 25.4 µM | 38.4 µM | > 58.1 µM | 37.3 µM | 28.2 µM | 4.86 µM | 34.3 µM | 20.2 µM | > 51.8 µM |  |  |  |  |  |  |  |  |  | 
O=C(O)Cc1[nH]cnc1C(=O)O | > 100 µM | > 100 µM | > 100 µM | > 100 µM | > 100 µM | > 100 µM | > 100 µM | > 100 µM | > 100 µM | > 100 µM |  |  |  |  |  |  |  |  |  | 
O=C(O)CNCc1c2ccccc2[n+]([O-])c2ccccc12 | > 100 µM | > 100 µM | > 100 µM |  | > 100 µM | > 100 µM | > 100 µM | > 100 µM | > 100 µM |  |  |  |  |  |  |  |  |  |  | 
CSc1sc(=S)sc1SC | > 100 µM | > 100 µM | > 100 µM | > 100 µM | > 100 µM | > 100 µM | > 100 µM | > 100 µM | > 100 µM |  |  |  |  |  |  |  |  |  |  | 
O=C(O)C(Br)Cc1ccc2c(c1)OCO2 (stereo not drawn) | > 100 µM | > 100 µM | > 100 µM | > 100 µM | > 100 µM |  | > 100 µM | > 100 µM | > 100 µM |  |  |  |  |  |  |  |  |  |  | 
C#C[C@@]1(O)[C@@H](CO)O[C@@H](n2cc(F)c3c(N)ncnc32)[C@@H]1O |  | 1.42 µM | > 100 µM | 5.29 µM | 4.74 µM | 2.63 µM | > 100 µM | 78.3 µM |  | 0.77 µM | 1.11 µM | 0.521 µM |  | 0.214 µM | 0.324 µM | 1.31 µM | 0.302 µM | 4.26 µM | 0.751 µM | 
CCOn1cc(C2=C(c3c[nH]c4ccccc34)C(=O)NC2=O)c2ccccc21 | 4.03 µM | > 61.6 µM | < 0.0182 µM | < 0.01 µM | 14.8 µM | 27.4 µM | 25.3 µM | 25.1 µM | < 0.0306 µM | > 100 µM | < 0.0117 µM | 1.01 µM | < 0.0121 µM | 18.5 µM | 15.8 µM | < 0.01 µM | 0.765 µM | 2.05 µM | < 0.0385 µM | < 0.0217 µM
C/C(=C\COP(=O)(O)OP(=O)(O)O)CC/C=C(\C)CNc1ccc([N+](=O)[O-])cc1 | > 100 µM | > 100 µM | > 100 µM | > 100 µM | > 100 µM | > 100 µM | > 100 µM | > 100 µM | > 100 µM | > 100 µM |  |  |  |  |  |  |  |  |  | 
CSc1ccc(-c2cc(-c3nc4ccccc4[nH]3)nc3[nH]c(-c4nc5ccccc5[nH]4)cc(=O)c23)cc1 | > 100 µM | > 100 µM | > 100 µM | > 100 µM | > 100 µM | > 100 µM |  | > 100 µM | > 100 µM | > 100 µM |  |  |  |  |  |  |  |  |  | 
Nc1nncs1 | > 5000 µM | > 4680 µM | > 5000 µM | > 5000 µM | > 5000 µM | > 5000 µM | > 5000 µM | > 5000 µM | > 4630 µM | > 4800 µM |  |  |  |  |  |  |  |  |  | 
